US20250127799A1, “DRUG CONJUGATES FOR BONE MARROW PROTECTION” (priority 2023, published 2025)
Peptide text beside a SMILES is read from it. * marks the point of attachment. X1 = O=C(CCCCCN1C(=O)CC(*)C1=O)NCCCC(O)(P(=O)(O)O)P(=O)(O)O; X2 = O=P(O)(O)SCCNCCCN*

Tests used:
[1] = system: CD2F1 male mice; experiment: Pathological evaluation of irradiated mice injected with a single dose; type: in vivo; set-up: key to Pathological change grade: Spleen, Depletion, white pulp / Pathological change grade: Lung, Infiltrate, mixed cells / Pathological change grade: Lung, Fibrosis / Pathological change grade: Heart, Infiltrate, mixed cells / Pathological change grade: Heart, Mineralization / Pathological change grade: Duodenum / Pathological change grade: Jejunum / Pathological change grade: Ileum / Pathological change grade: Colon, Infiltrate, mixed cells / Pathological change grade: Kidney / Pathological change grade: Urinary bladder / Pathological change grade: Bone Marrow, Atrophy / Pathological change grade: Bone Marrow, Hemorrhage / Pathological change grade: Liver: 0=no change; 1=a minimal change, barely perceptible; 2=a mild change; 3 =a moderate change, affecting up to 50% of the tissue; 4=marked change, affecting up to 90% of the tissue; 5=severe or maximum change
Description: CD2F1 male mice (N=16) were subcutaneously (sc) injected with a single dose of one conjugate drug. For one protective drug conjugate (Conjugate 2), the tested doses were 250, 500, 600, and 700 mg/kg, and the irradiation was conducted at 24 h post-drug administration. The structure of Conjugate 2 included amifostine as the protective drug, alendronate as the bone-targeting ligand, and a protease-cleavable peptide having the sequence of CPLGLYAL (SEQ ID NO: 29) with acetylation at the N-terminus (e.g., AcCPLGLYAL; SEQ ID NO: 76). On day 30, surviving mice were humanely sacrificed and necropsied, eleven tissues of interest (liver, spleen, lung, heart, duodenum, jejunum, ileum, colon, kidney, urinary bladder, and sternum/bone marrow) were collected, preserved in fixative, and processed to glass slides. The completed preparations were stained with hematoxylin and eosin and examined microscopically. Pathological changes in the tissues were graded using a semi-quantitation scale of 0-5, where 0=no change, 1=a minimal change, barely perceptible; 2=a mild change; 3 =a moderate change, affecting up to 50% of the tissue; 4=marked change, affecting up to 90% of the tissue; and 5=severe or maximum change.

[2] = target: matrix metalloproteinase 9 (MMP9) (Homo sapiens, UniProt P14780); experiment: In vitro matrix metalloproteinase-based conjugate cleavage; type: biochemical; settings: isolated enzyme, MMP9, 37° C., up to 20 h, read-out: T1/2 of cleavage (converted)
Description: In this exemplary representative cleavage experiment, a 90 μL stock solution of protective drug conjugate (1 mg/mL) was mixed with 2 μL of matrix metalloproteinase 9 (MMP9) (10 unit/μL) and 8.2 μL of 50 mM CaCl2 solution, followed by incubation at 37° C. for up to 20 h. A 10 μL sample was taken at 0.3, 1, 2, 4, 9, or 20 h for the HPLC analysis. Three conjugates having different peptide sequences (Conjugates 1-3) were used in this test: Conjugate 1-peptide sequence of CPLSLYAL (SEQ ID NO: 65); Conjugate 2-peptide sequence of CPLSLYSL (SEQ ID NO: 66); and Conjugate 3-peptide sequence of CPLGLAL (SEQ ID NO: 67). The concentrations of the conjugate residual in samples were normalized and presented as cleavage ratios.

[3] = 250 mg/kg sc, 24 h before 9.2 Gy, day 30, N = 11
[4] = 500 mg/kg sc, 24 h before 9.2 Gy, day 30, N = 12
[5] = 600 mg/kg sc, 24 h before 9.2 Gy, day 30, N = 15
[6] = 700 mg/kg sc, 24 h before 9.2 Gy, day 30, N = 16

matrix metalloproteinase 9 (MMP9), sequence (P14780 94-707, species assumed): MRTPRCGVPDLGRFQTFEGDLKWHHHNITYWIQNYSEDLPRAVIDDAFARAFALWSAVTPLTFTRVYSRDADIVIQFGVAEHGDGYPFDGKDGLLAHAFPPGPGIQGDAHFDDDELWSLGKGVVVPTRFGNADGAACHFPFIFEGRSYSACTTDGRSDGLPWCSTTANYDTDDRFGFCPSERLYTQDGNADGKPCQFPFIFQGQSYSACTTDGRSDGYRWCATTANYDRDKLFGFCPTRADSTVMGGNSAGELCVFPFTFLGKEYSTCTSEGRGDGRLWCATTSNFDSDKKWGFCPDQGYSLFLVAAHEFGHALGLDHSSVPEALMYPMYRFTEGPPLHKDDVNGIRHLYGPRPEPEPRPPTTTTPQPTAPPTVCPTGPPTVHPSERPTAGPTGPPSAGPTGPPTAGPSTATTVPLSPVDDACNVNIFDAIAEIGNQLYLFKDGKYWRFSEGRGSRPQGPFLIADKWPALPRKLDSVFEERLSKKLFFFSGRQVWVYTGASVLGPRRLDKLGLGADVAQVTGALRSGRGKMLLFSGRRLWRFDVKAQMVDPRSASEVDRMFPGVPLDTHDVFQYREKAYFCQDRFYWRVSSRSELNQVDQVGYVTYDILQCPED

CC(=O)N[C@@H](CSC1CC(=O)N(CCCCCC(=O)NCCCC(O)(P(=O)(O)O)P(=O)(O)O)C1=O)C(=O)N1CCC[C@H]1C(=O)N[C@@H](CC(C)C)C(=O)NCC(=O)N[C@@H](CC(C)C)C(=O)N[C@@H](Cc1ccc(O)cc1)C(=O)N[C@@H](C)C(=O)N[C@@H](CC(C)C)C(=O)NCCCNCCSP(=O)(O)O (stereo partly drawn) [Conjugate 2] (Ac-C(X1)PLGLYAL-X2)
Pathological change grade: Bone Marrow, Atrophy [1, 3]: 2-3 | Pathological change grade: Bone Marrow, Hemorrhage [1, 3]: 0-1 | Pathological change grade: Colon, Infiltrate, mixed cells [1, 3]: 1 | Pathological change grade: Duodenum [1, 3]: 0 | Pathological change grade: Heart, Infiltrate, mixed cells [1, 3]: 0 | Pathological change grade: Heart, Mineralization [1, 3]: 0 | Pathological change grade: Ileum [1, 3]: 0 | Pathological change grade: Jejunum [1, 3]: 0 | Pathological change grade: Kidney [1, 3]: 0 | Pathological change grade: Liver [1, 3]: 0 | Pathological change grade: Lung, Fibrosis [1, 3]: 0 | Pathological change grade: Lung, Infiltrate, mixed cells [1, 3]: 0 | Pathological change grade: Spleen, Depletion, white pulp [1, 3]: 2 | Pathological change grade: Urinary bladder [1, 3]: 0 | Pathological change grade: Bone Marrow, Atrophy [1, 4]: 2-3 | Pathological change grade: Bone Marrow, Hemorrhage [1, 4]: 0-1 | Pathological change grade: Colon, Infiltrate, mixed cells [1, 4]: 1 | Pathological change grade: Duodenum [1, 4]: 0 | Pathological change grade: Heart, Infiltrate, mixed cells [1, 4]: 0 | Pathological change grade: Heart, Mineralization [1, 4]: 0 | Pathological change grade: Ileum [1, 4]: 0 | Pathological change grade: Jejunum [1, 4]: 0 | Pathological change grade: Kidney [1, 4]: 0 | Pathological change grade: Liver [1, 4]: 0 | Pathological change grade: Lung, Fibrosis [1, 4]: 0 | Pathological change grade: Lung, Infiltrate, mixed cells [1, 4]: 0 | Pathological change grade: Spleen, Depletion, white pulp [1, 4]: 1-2 | Pathological change grade: Urinary bladder [1, 4]: 0 | Pathological change grade: Bone Marrow, Atrophy [1, 5]: 2-3 | Pathological change grade: Bone Marrow, Hemorrhage [1, 5]: 0-1 | Pathological change grade: Colon, Infiltrate, mixed cells [1, 5]: 0-1 | Pathological change grade: Duodenum [1, 5]: 0 | Pathological change grade: Heart, Infiltrate, mixed cells [1, 5]: 0 | Pathological change grade: Heart, Mineralization [1, 5]: 0 | Pathological change grade: Ileum [1, 5]: 0 | Pathological change grade: Jejunum [1, 5]: 0 | Pathological change grade: Kidney [1, 5]: 0 | Pathological change grade: Liver [1, 5]: 0 | Pathological change grade: Lung, Fibrosis [1, 5]: 0 | Pathological change grade: Lung, Infiltrate, mixed cells [1, 5]: 0 | Pathological change grade: Spleen, Depletion, white pulp [1, 5]: 1-2 | Pathological change grade: Urinary bladder [1, 5]: 0 | sternal bone marrow histology compared to Vehicle Group ([1]; 700 mg/kg 24 h before 9.2 Gy, day 30 (FIG. 11B)): much denser marrow | white pulp of the spleen, histology ([1]; 700 mg/kg 24 h before 9.2 Gy, day 30 (FIG. 11D)): essentially normal | Pathological change grade: Bone Marrow, Atrophy [1, 6]: 2 | Pathological change grade: Bone Marrow, Hemorrhage [1, 6]: 0 | Pathological change grade: Colon, Infiltrate, mixed cells [1, 6]: 0-1 | Pathological change grade: Duodenum [1, 6]: 0 | Pathological change grade: Heart, Infiltrate, mixed cells [1, 6]: 0 | Pathological change grade: Heart, Mineralization [1, 6]: 0 | Pathological change grade: Ileum [1, 6]: 0 | Pathological change grade: Jejunum [1, 6]: 0 | Pathological change grade: Kidney [1, 6]: 0 | Pathological change grade: Liver [1, 6]: 0 | Pathological change grade: Lung, Fibrosis [1, 6]: 0 | Pathological change grade: Lung, Infiltrate, mixed cells [1, 6]: 0 | Pathological change grade: Spleen, Depletion, white pulp [1, 6]: 1-2 | Pathological change grade: Urinary bladder [1, 6]: 0 | protective effects on tissue pathology, especially bone marrow ([1]; 250, 500, 600, 700 mg/kg, 24 h before 9.2 Gy): significant dose-depending protective effects | half-life at 0.898 mg/mL [2]: ~7.5 h
